Source: the supplement of paper PMC10307832

What was measured:
Experiment in all cases: relative viability (nuclei count vs DMSO), 5 days (fraction); higher = more cells survive
[1] = compound: CC1=CC(=CC=C1)NC2=NC(=CS2)C3=CC=NC=C3 + CS(=O)(=O)N1CCN(Cc2cc3nc(-c4cccc5[nH]ncc45)nc(N4CCOCC4)c3s2)CC1 [Pictilisib] (partner 1 µM)
Summary of the method: (§1)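 Values are medians from duplicate plates. Each reflects relative viability, defined as the nuclei count of treated wells over that of vehicle wells. Lung cancer cell lines in 1536-well plates were pin-tool dosed one day after seeding with one drug alone or with a fixed anchor-drug dose plus five library-drug doses (not always all listed) in √10 steps, then fixed, stained and imaged at 4× after 5 days.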

Masitinib + OSI-027 = compound: Cc1ccc(NC(=O)c2ccc(CN3CCN(C)CC3)cc2)cc1Nc1nc(-c2cccnc2)cs1 [Masitinib] + COc1cccc2cc(-c3nc([C@H]4CC[C@H](C(=O)O)CC4)n4ncnc(N)c34)[nH]c12 [OSI-027] (partner 0.5 µM)
Summary of the method: as §1

Masitinib + AZD7762 = compound: Cc1ccc(NC(=O)c2ccc(CN3CCN(C)CC3)cc2)cc1Nc1nc(-c2cccnc2)cs1 [Masitinib] + NC(=O)Nc1cc(-c2cccc(F)c2)sc1C(=O)N[C@H]1CCCNC1 [AZD7762] (partner 0.2 µM)
Summary of the method: as §1

[2] = compound: CC1=CC(=CC=C1)NC2=NC(=CS2)C3=CC=NC=C3 + CCNC(=O)c1noc(-c2cc(C(C)C)c(O)cc2O)c1-c1ccc(CN2CCOCC2)cc1 [Luminespib] (partner 0.01 µM)
Summary of the method: as §1

Cell Line | relative viability ([1]; first compound 0.08 µM) | relative viability ([1]; first compound 0.253 µM) | relative viability ([1]; first compound 0.8 µM) | relative viability ([1]; first compound 2.53 µM) | relative viability ([1]; first compound 8 µM) | relative viability (Masitinib + OSI-027; first compound 0.03162 µM) | relative viability (Masitinib + OSI-027; first compound 0.3162 µM) | relative viability (Masitinib + OSI-027; first compound 1 µM) | relative viability (Masitinib + AZD7762; first compound 0.03162 µM) | relative viability (Masitinib + AZD7762; first compound 0.1 µM) | relative viability (Masitinib + AZD7762; first compound 0.3162 µM) | relative viability (Masitinib + AZD7762; first compound 1 µM) | relative viability (Masitinib + OSI-027; first compound 0.01 µM) | relative viability (Masitinib + OSI-027; first compound 0.1 µM) | relative viability ([2]; first compound 0.08 µM) | relative viability ([2]; first compound 0.253 µM) | relative viability ([2]; first compound 0.8 µM) | relative viability ([2]; first compound 2.53 µM) | relative viability ([2]; first compound 8 µM) | relative viability (Masitinib + AZD7762; first compound 0.01 µM)
HCC-366 | 0.146 | 0.11 | 0.132 | 0.157 | 0.121 | 1 | 0.792 | 0.78 | 0.226 | 0.256 | 0.203 | 0.188 | – | – | – | – | – | – | – | –
HCC-827 | 0.72 | 0.875 | 1.12 | 0.895 | 0.812 | 0.704 | 0.84 | 0.692 | 0.198 | 0.192 | 0.165 | 0.213 | 0.728 | 0.832 | 0.618 | 0.453 | 0.649 | 0.89 | 0.726 | 0.224
HOP-62 | 0.581 | 0.758 | 1.09 | 0.668 | 0.903 | 0.866 | 0.929 | 0.837 | 0.631 | 0.837 | 0.679 | 0.655 | 0.759 | 0.923 | 0.952 | 0.8 | 0.867 | 0.914 | 0.879 | 0.458
IA-LM | 0.24 | 0.337 | 0.415 | 0.267 | 0.427 | – | – | – | – | – | – | – | – | – | – | – | – | – | – | –
LC-2-ad | 0.365 | 0.366 | 0.478 | 0.369 | 0.436 | 0.904 | 0.738 | 0.768 | 0.795 | 0.707 | 0.71 | 0.818 | 0.862 | 0.929 | 0.858 | – | 1.09 | 0.768 | 0.965 | 0.687
LCLC-97TM1 | – | – | 0.282 | 0.207 | 0.198 | 0.534 | 0.568 | 0.516 | 0.288 | 0.229 | 0.191 | 0.229 | – | 0.559 | 0.689 | 0.794 | 0.839 | 0.816 | 0.825 | 0.235
NCI-H520 | 0.281 | 0.346 | 0.301 | 0.278 | 0.299 | 0.265 | 0.237 | 0.228 | – | – | – | – | 0.267 | 0.261 | 0.223 | 0.201 | 0.252 | 0.206 | 0.241 | –
NCI-H522 | – | – | – | – | – | – | 0.781 | 0.698 | 0.874 | 0.894 | 0.643 | 0.795 | 0.784 | 0.781 | 1.25 | 1.07 | 1.34 | – | 1.28 | 0.892
NCI-H661 | 0.447 | 0.47 | 0.407 | 0.397 | 0.489 | 0.648 | 0.643 | 0.528 | – | – | – | – | 0.672 | 0.727 | 0.887 | 0.963 | 0.885 | 0.887 | 0.863 | –
NCI-H1299 | 0.779 | 0.839 | 0.779 | 0.88 | 0.899 | – | – | – | – | – | – | – | – | – | – | – | – | – | – | –
NCI-H1563 | 0.675 | 0.616 | 0.712 | 0.617 | 0.592 | 0.717 | 0.738 | 0.705 | – | – | – | – | 0.741 | 0.781 | 0.488 | 0.546 | 0.546 | 0.506 | 0.541 | –
